The record followed here is publication PMC10518255, “A first-in-class pan-lysyl oxidase inhibitor impairs stromal remodeling and enhances gemcitabine response and survival in pancreatic cancer” (Nature Cancer, 2023).

The test system of assay [1] is KPC CAF remodeled 3D collagen matrices. Kind of assay: Matrix stiffness by unconfined compression testing of organotypic matrices. The settings on record: day 12, PXS-5505 30 µM, normalized to control, individual samples. It is filed as cell-based, mouse. The protocol:
Fig. 3 PXS-5505 inhibition of CAF remodeling in vitro. a, Quantitative PCR with reverse transcription (qRT–PCR) showing in vitro comparison of KPC CAF relative expression of lysyl oxidase family members compared to KPC CCs from the same model (n = 3 biologically independent samples). Comparisons were determined by 2^–∆∆Ct approach. b, Representative images of 3D organotypic matrix contraction assay at days 2, 6 and 12 in the absence (gray) or presence (pink) of PXS-5505 (30 µM). Scale bars, 5 mm. Comparison of measured area of matrices between control and PXS-5505 treatment groups over time (n = 3 technical samples examined over three biologically independent samples). Data are mean ± s.d. c, Concentration of immature divalent DHLNL and mature trivalent Pyr collagen crosslinks determined by LC–MS from control and PXS-5505-treated organotypic matrices at day 12 (n = 3 technical samples examined over two biologically independent samples). Data are mean ± s.d. […] Data are presented as mean ± s.d. […] Comparison of number of CCs invaded per field of view (FOV) as determined by H&E and PanCK staining (nine images taken from three technical samples from each of three biologically independent contracted matrices), normalized to control. Data are mean ± s.d. Scale bars, 100 μm. […] Source data […]

Assay [2] concerns lysyl oxidase family members in KPC CCs. Kind of assay: qRT-PCR of lysyl oxidase family members after treatment (Extended Data Figs. 2d, 3h). It is filed as cell-based, mouse. Further details: qRT-PCR LOX (Ct) / qRT-PCR LOX ΔCt / qRT-PCR LOX ΔΔCt KPC CC / qRT-PCR LOXL1 ΔCt / qRT-PCR LOXL1 ΔΔCt KPC CC / qRT-PCR LOXL2 ΔCt / qRT-PCR LOXL2 ΔΔCt KPC CC / qRT-PCR LOXL3 ΔCt / qRT-PCR LOXL3 ΔΔCt KPC CC / qRT-PCR LOXL4 ΔCt / qRT-PCR LOXL4 ΔΔCt KPC CC: dose or concentration left out as unconfirmed. As to the method:
A total of 5 × 10^5 KPC CCs or CAFs were seeded and collected after incubation in 21% O2/5% CO2 for 72 h. RNA was isolated using the RNeasy mini kit (QIAGEN) according to the manufacturer’s instructions. Then, 1 μg of RNA was reverse transcribed using the Transcriptor First Strand cDNA Synthesis kit (Roche LifeScience) with anchored-oligo(dT)18 primers or the QuantiTect Reverse Transcription kit (QIAGEN). Real-time PCR was performed using the Roche LightCycler480 (Roche LifeScience) or QuantStudio 7 (Thermo Fisher). The following probe sets from Applied Biosystems, were used: LOX, Mm00495386; LOXL1, Mm01145738; LOXL2, Mm00804740; LOXL3, Mm01184867; LOXL4, Mm00446385; and GAPDH, Mm99999915. Primers and Roche Universal Probe Library probes used for RT–qPCR are described in Supplementary Table 4. Relative mRNA expression levels for each transcript of interest were normalized to GAPDH or ACTB (as indicated) and quantified using the comparative double ΔCt method (unless stated otherwise) for each biological replicate.
Extended Data Fig. 2 Characterization of cells derived from the KPC autochthonous model. a. Immunofluorescence staining of KPC CCs and KPC CAFs for the pancreatic epithelial cell marker CDH1 (green), DAPI (blue) and for the CAF marker α-SMA (yellow), DAPI (blue). Representative images from n = 3 biological independent samples. Scale bar = 30 μm. b. RNAseq reads for CAF and epithelial cell makers in KPC CAFs n = 3 biological independent samples. […] Data is presented as mean values ± SEM. […] Data presented as mean values +/− SD. […] Source data
Data presented as mean values +/− SD. f. […] Data presented as mean values +/− SD. […] Data presented as mean values +/− SD. […] Data presented as mean values +/− SD. Ordinary one-way ANOVA for multiple comparison test performed. Source data

Setting [3] is: KPC CC, 48 hour treatment, 30 M PXS-5505, replicates.
[4] abbreviates: KPC CC, 48 hour treatment, PXS-5505, replicates.
[5] abbreviates: KPC CC, 48 hour treatment, PXS-5505, vs GAPDH, replicates.
Setting [6] is: KPC CCs, 50 nM gemcitabine, 48 hours, per replicate.
Where [7] appears, read: KPC CCs, 50 nM gemcitabine, 48 hours, vs GAPDH, per replicate.

Where “and” joins values, the source holds several entries; their conditions need not be identical. Identical values can stand only once.

As for `Cl.Cl.NC/C=C(\F)CS(=O)(=O)c1cccc2cccnc12.O` [PXS-5505, (Z)-3-fluoro-4-(quinolin-8-ylsulfonyl)but-2-en-1-amine dihydrochloride monohydrate], the “matrix stiffness by unconfined compression testing” value in assay [1] was 0.918 and 0.779 and 0.916 and 0.962 and 0.835 and 0.748 and 0.939 and 0.975. In addition, in assay [2] (setting [3]), the “qRT-PCR LOXL1 (Ct)” value was 32.0868 and 30.4856 and 33.7318; the “qRT-PCR LOXL2 (Ct)” value is 25.1478 and 23.1006 and 27.5044; the “qRT-PCR LOXL3 (Ct)” value was 25.6118 and 24.0525 and 29.0502; the “qRT-PCR LOXL4 (Ct)” value was 26.1005 and 25.1765 and 30.4751. In assay [2] (setting [4]), the “qRT-PCR LOX (Ct)” value was 32.5405 and 35.0722 and 35.237; the “qRT-PCR LOX ΔΔCt KPC CC” value is 3.619 and 0.48 and 10.8682; the “qRT-PCR LOXL1 ΔΔCt KPC CC” value was 0.8362 and 0.4014 and 1.074; the “qRT-PCR LOXL2 ΔΔCt KPC CC” value is 0.7412 and 0.4847 and 0.5812. In assay [2] (setting [4]), the “qRT-PCR LOXL3 ΔΔCt KPC CC” value was 2.035 and 0.9488 and 0.7538. Moreover, in assay [2] (setting [5]), the “qRT-PCR LOX ΔCt” value was 15.5819 and 18.4964 and 13.9954; the “qRT-PCR LOXL1 ΔCt” value is 12.8511 and 13.9099 and 12.4902; the “qRT-PCR LOXL2 ΔCt” value was 5.9121 and 6.525 and 6.263; the “qRT-PCR LOXL3 ΔCt” value is 6.376 and 7.477 and 7.8086. Also, the “qRT-PCR LOXL4 ΔΔCt KPC CC” value in assay [2] (KPC CC, 48 hour treatment, replicates) was 3.255 and 0.9772 and 0.6302. In addition, in assay [2] (KPC CC, 48 hour treatment, vs GAPDH, replicates), the “qRT-PCR LOXL4 ΔCt” value is 6.8648 and 8.601 and 9.233. Also, the “transcription of lysyl oxidase family members” value in assay [2] (KPC CCs, PXS-5505 up to 300 µM) is “does not significantly alter transcription”.
`Nc1ccn([C@@H]2O[C@H](CO)[C@@H](O)C2(F)F)c(=O)n1` [Gem, gemcitabine]: in assay [2] (setting [6]), the “LOX ΔΔCt CC” value was 0.5966 and 0.4518 and 0.8445; the “LOXL1 ΔΔCt CC” value is 2.011 and 0.7673 and 0.4707; the “LOXL2 ΔΔCt CC” value was 1.535 and 1.563 and 1.2; the “LOXL3 ΔΔCt CC” value was 1.643 and 1.594 and 1.375. Also, in assay [2] (setting [6]), the “LOXL4 ΔΔCt CC” value was 0.7511 and 0.9095 and 0.7486. For the same compound, in assay [2] (setting [7]), the “LOX ΔCt” value was 14.7188 and 15.1199 and 14.2176; the “LOXL1 ΔCt” value was 12.5081 and 13.8984 and 14.6034; the “LOXL2 ΔCt” value was 4.459 and 4.433 and 4.815; the “LOXL3 ΔCt” value is 5.8941 and 5.937 and 6.151. The “LOXL4 ΔCt” value in assay [2] (setting [7]) was 8.9744 and 8.6983 and 8.979. Also, in assay [2] (KPC cancer cells, 50 nM gemcitabine for 48 hours), the “expression of lysyl oxidase family members” value is “not observed”.
